Species: Rattus norvegicus
Experiment: Open TG-GATES - Regimen: Single
Assay type: toxicity, organism-based, Sprague-Dawley
Design: regimen Single, gender Male, age 6 weeks
Details: in vivo, po, 0 mg/kg, route gavage, dose level Control; for APTT / Bas / Eos / Fbg / Hb / Ht / Lym / MCH / MCHC / MCV / Mono / Neu / PT / Plat / RBC / Ret / WBC: tissue Blood; for KIDNEY_L / KIDNEY_R / KIDNEY_TOTAL: tissue Kidney; for LIVER: tissue Liver; for A/G / ALP / ALT / AST / BUN / CRE / Ca / Cl / DBIL / GLC / IP / K / LDH / Na / PL / RALB / TBIL / TC / TG / TP / gamma-GTP: tissue Plasma

NC(=O)N/N=C/c1ccc([N+](=O)[O-])o1 [NITROFURAZONE]
TERMINAL_BW (3 h): 181.6 g
APTT (3 h): 15.7 s
Bas (3 h): 0%
Eos (3 h): 0.6%
Fbg (3 h): 250 mg/dL
Hb (3 h): 12.7 g/dL
Ht (3 h): 39.7%
Lym (3 h): 79%
MCH (3 h): 21.6 pg
MCHC (3 h): 32%
MCV (3 h): 67.7 fL
Mono (3 h): 2.8%
Neu (3 h): 17%
PT (3 h): 14.7 s
Plat (3 h): 114.3 x10_4/uL
RBC (3 h): 586.4 x10_4/ul
Ret (3 h): 10.9%
WBC (3 h): 77.6 x10_2/uL
KIDNEY_L (3 h): 0.8 g
KIDNEY_R (3 h): 0.8 g
KIDNEY_TOTAL (3 h): 1.6 g
LIVER (3 h): 8.2 g
A/G (3 h): 0.9
ALP (3 h): 1508.2 IU/L
ALT (3 h): 45.4 IU/L
AST (3 h): 78 IU/L
BUN (3 h): 9.8 mg/dL
CRE (3 h): 0.2 mg/dL
Ca (3 h): 11.3 mg/dL
Cl (3 h): 104.8 meq/L
DBIL (3 h): 0.012 mg/dL
GLC (3 h): 179.2 mg/dL
IP (3 h): 9.6 mg/dL
K (3 h): 4.1 meq/L
LDH (3 h): 49.8 IU/L
Na (3 h): 141 meq/L
PL (3 h): 141.8 mg/dL
RALB (3 h): 2.4 g/dL
TBIL (3 h): 0.056 mg/dL
TC (3 h): 80.4 mg/dL
TG (3 h): 54.6 mg/dL
TP (3 h): 5.2 g/dL
gamma-GTP (3 h): 1.2 IU/L
TERMINAL_BW (6 h): 180.8 g
APTT (6 h): 16.4 s
Bas (6 h): 0.2%
Eos (6 h): 0.6%
Fbg (6 h): 266.6 mg/dL
Hb (6 h): 12.7 g/dL
Ht (6 h): 39.4%
Lym (6 h): 73.2%
MCH (6 h): 22.1 pg
MCHC (6 h): 32.2%
MCV (6 h): 68.6 fL
Mono (6 h): 3%
Neu (6 h): 21.8%
PT (6 h): 14.6 s
Plat (6 h): 118.4 x10_4/uL
RBC (6 h): 576.2 x10_4/ul
Ret (6 h): 11%
WBC (6 h): 90.9 x10_2/uL
KIDNEY_L (6 h): 0.8 g
KIDNEY_R (6 h): 0.9 g
KIDNEY_TOTAL (6 h): 1.7 g
LIVER (6 h): 7.4 g
A/G (6 h): 0.9
ALP (6 h): 1461 IU/L
ALT (6 h): 44.4 IU/L
AST (6 h): 77.2 IU/L
BUN (6 h): 8 mg/dL
CRE (6 h): 0.2 mg/dL
Ca (6 h): 11 mg/dL
Cl (6 h): 105 meq/L
DBIL (6 h): 0.01 mg/dL
GLC (6 h): 169.8 mg/dL
IP (6 h): 10.3 mg/dL
K (6 h): 4.2 meq/L
LDH (6 h): 61.4 IU/L
Na (6 h): 140.6 meq/L
PL (6 h): 132.2 mg/dL
RALB (6 h): 2.4 g/dL
TBIL (6 h): 0.062 mg/dL
TC (6 h): 78.2 mg/dL
TG (6 h): 36.2 mg/dL
TP (6 h): 5.2 g/dL
gamma-GTP (6 h): 1 IU/L
TERMINAL_BW (9 h): 179.5 g
APTT (9 h): 15.7 s
Bas (9 h): 0%
Eos (9 h): 0.6%
Fbg (9 h): 260 mg/dL
Hb (9 h): 12.7 g/dL
Ht (9 h): 39.8%
Lym (9 h): 75%
MCH (9 h): 21.6 pg
MCHC (9 h): 32%
MCV (9 h): 67.5 fL
Mono (9 h): 2.4%
Neu (9 h): 21.4%
PT (9 h): 14.5 s
Plat (9 h): 109.4 x10_4/uL
RBC (9 h): 590.6 x10_4/ul
Ret (9 h): 10.5%
WBC (9 h): 64.3 x10_2/uL
KIDNEY_L (9 h): 0.8 g
KIDNEY_R (9 h): 0.8 g
KIDNEY_TOTAL (9 h): 1.6 g
LIVER (9 h): 7.1 g
A/G (9 h): 0.9
ALP (9 h): 1214.2 IU/L
ALT (9 h): 47.8 IU/L
AST (9 h): 79.4 IU/L
BUN (9 h): 8.8 mg/dL
CRE (9 h): 0.2 mg/dL
Ca (9 h): 11 mg/dL
Cl (9 h): 105 meq/L
DBIL (9 h): 0.012 mg/dL
GLC (9 h): 169 mg/dL
IP (9 h): 10.6 mg/dL
K (9 h): 3.9 meq/L
LDH (9 h): 55.2 IU/L
Na (9 h): 142 meq/L
PL (9 h): 139.4 mg/dL
RALB (9 h): 2.4 g/dL
TBIL (9 h): 0.062 mg/dL
TC (9 h): 85.2 mg/dL
TG (9 h): 25 mg/dL
TP (9 h): 5.2 g/dL
gamma-GTP (9 h): 1.4 IU/L
TERMINAL_BW (24 h): 194.2 g
APTT (24 h): 17.5 s
Bas (24 h): 0%
Eos (24 h): 0.8%
Fbg (24 h): 246.6 mg/dL
Hb (24 h): 13 g/dL
Ht (24 h): 40.1%
Lym (24 h): 76.8%
MCH (24 h): 22 pg
MCHC (24 h): 32.4%
MCV (24 h): 67.8 fL
Mono (24 h): 3.2%
Neu (24 h): 18.6%
PT (24 h): 14.8 s
Plat (24 h): 111.2 x10_4/uL
RBC (24 h): 592.4 x10_4/ul
Ret (24 h): 9.7%
WBC (24 h): 96.7 x10_2/uL
KIDNEY_L (24 h): 0.8 g
KIDNEY_R (24 h): 0.9 g
KIDNEY_TOTAL (24 h): 1.7 g
LIVER (24 h): 9 g
A/G (24 h): 0.9
ALP (24 h): 1711.4 IU/L
ALT (24 h): 48.4 IU/L
AST (24 h): 74.4 IU/L
BUN (24 h): 14.8 mg/dL
CRE (24 h): 0.2 mg/dL
Ca (24 h): 11.3 mg/dL
Cl (24 h): 104.8 meq/L
DBIL (24 h): 0.012 mg/dL
GLC (24 h): 177.6 mg/dL
IP (24 h): 8 mg/dL
K (24 h): 3.7 meq/L
LDH (24 h): 61.2 IU/L
Na (24 h): 142 meq/L
PL (24 h): 149.2 mg/dL
RALB (24 h): 2.5 g/dL
TBIL (24 h): 0.044 mg/dL
TC (24 h): 82.2 mg/dL
TG (24 h): 72.4 mg/dL
TP (24 h): 5.4 g/dL
gamma-GTP (24 h): 1 IU/L

From ChEMBL document CHEMBL3885861, “Open TG-GATES”
